These results are taken from patent US11975041B2, “Composition comprising CHP (cyclo-his pro) for preventing, improving or treating of bone loss related disease” (NovMetaPharma Co., Ltd., priority 2017, dated 2024).

Entries after “also recorded” stand apart in the source; their conditions may differ.

The subject of experiment [1] is ovariectomized animal model. Put plainly: Osteoporosis alleviation in ovariectomized animal model, Micro CT of femur. The class given is in vivo, SD female mice. The protocol: To determine the effect of alleviating osteoporosis in an ovariectomized animal model according to administration of CHP, a zinc salt, or a mixture thereof, 20-week-old SD female mice (SLC/Central Experimental Animal Co. Ltd., Seoul, Korea) were purchased and raised under certain conditions (temperature: 22±2° C., relative humidity: 55±10%, light/dark cycle: 12 hours). 7 mice/group were allowed to freely drink water and eat food in a cage, subjected to an adaptation period of 1 week before the experiment, and used in the experiment.
After 6 weeks of the administration of CHP, a zinc salt, or a mixture thereof, the effect of alleviating osteoporosis in an ovariectomized animal model was analyzed using Micro CT. The bone mineral density of ovariectomized animals was measured by bone CT scanning of the 3 mm range at the front side of a 2 mm femoral growth plate using micro-CT (QuantumFX, Perkin Elmer, Massachusetts, USA). In addition, a bone volume fraction (BV/TV, %) was measured. The measurement results of the bone mineral density of the femur are illustrated in FIG. 1, and the bone volume fraction is illustrated in FIG. 2.

In experiment [2] the test system is MC3T3-E1 cells. In words: Alkaline phosphatase (ALP) activity / osteogenic differentiation of MC3T3-E1 osteoblasts. The class given is cell-based. The protocol: MC3T3-E1 cells were incubated in MEMα, an ascorbic acid-free medium containing 10% FBS and 1% penicillin/streptomycin, in a 5% CO2 incubator at 37° C. To induce osteogenic differentiation, 10 mM β-glycerophosphate and […] of ascorbic acid was further added to the basal medium composition.
500 μl of 1×10^5 MC3T3-E1 cells were seeded into a 24-well plate and cultured for 24 hours until they reached 100% confluency. […] At this time, in the undifferentiated group, which is a negative control for differentiation, a basal medium was used instead of the differentiation medium. In the positive control treated with hPTH1-34, the medium was replaced with a differentiation medium 6 hours after the treatment. While the medium was replaced every 48 hours, each concentration of CHP and hPTH1-34 was treated for a total of 14 days.
On day 14 of differentiation, the medium was removed, followed by washing once with PBS and fixing in 4% paraformaldehyde (PFA) at room temperature for 5 minutes. 500 μl of a 1-STEP™ NBCT/BCIP solution was added to allow a reaction to occur at room temperature for 1 hour. The reaction product was washed with distilled water, and then dried at room temperature, and the degree of coloring of the cells was observed using a microscope. Subsequently, DMSO was added to each well, followed by shaking, and then absorbance at 525 nm was measured.

As for `O=C1N[C@@H](Cc2cnc[nH]2)C(=O)N2CCC[C@@H]12` [CHP, cyclo-hispro], the “bone mineral density of the femur” value in experiment [1] (1 mg/L of CHP in drinking water, 6 weeks, micro-CT, compared to the ovariectomized group (FIG. 1)) is reported as “significant increase”. Moreover, the “bone volume fraction (BV/TV)” value in experiment [1] (1 mg/L of CHP in drinking water, 6 weeks, micro-CT, compared with positive control risedronate (FIG. 2)) is recorded as “restored to a level similar to that of the positive control”. Besides, the “effect on bone mineral density and bone volume fraction relative to zinc salt and zinc salt + CHP mixture groups” value in experiment [1] (CHP alone vs zinc salt-administered group and combined administration group) is reported as “significantly stronger”. In addition, in experiment [1] (CHP alone, ovariectomized animal model, dose not stated (FIG. 1)), the “bone mineral density of a femur” value was “significantly increased”. Moreover, the “bone volume fraction of a femur” value in experiment [1] (CHP alone, ovariectomized animal model, dose not stated (FIG. 2)) is given as “significantly increased”. Also, the “ALP activity (absorbance at 525 nm)” value in experiment [2] (2 mM CHP, day 14, compared with positive control hPTH1-34 10 nM (FIG. 4)) is “level similar to that of the positive control; also recorded: same or similar to that of a positive control”. In addition, the “osteogenic differentiation (degree of coloring, ALP staining)” value in experiment [2] (0.5, 1, 2 mM CHP, day 14 of differentiation, compared to negative control (FIG. 3)) is “remarkably increased degree of coloring; also recorded: osteogenic differentiation and bone modeling were promoted”.
